# Assay results taken from US4619929A, “Phenylpiperazine derivatives of hetarylphenols and hetarylanilines, their preparation, and therapeutic agents containing these compounds” (BASF Aktiengesellschaft, priority 1981, dated 1986).
# Read-outs that look alike come from different tables or passages of the source.
# What was measured:
# [1] = Hypotensive action on rats under urethane narcosis, blood pressure measured in the carotid artery (ED 20%); format: in vivo, Sprague-Dawley rats; details: for Hypotensive effect R.A. (relative activity; chlorpromazine = 1.00) / ED20: rat; for Separation between sedative action and hypotensive action versus chlorpromazine: in words; for Hypotensive action in words: blood pressure lowering doses versus chlorpromazine: narcotized rats; for Hypotensive side effect, in words: versus chlorpromazine
# Procedure: The blood pressure was measured in the carotid artery. The substance was administered either by introduction into a jugular vein (as an aqueous solution, at the rate of 1 ml/kg) or intraperitoneally as a suspension in tragacanth (at the rate of 10 ml/kg). The ED 20%, i.e. the dose which produces a 20% lowering of the blood pressure, was determined from the linear regression of log dose (mg/kg) and relative lowering of the blood pressure (Δ %).
# [2] = Sedative action: orientation hypermotility of mice induced by a new environment (ED 50%); format: in vivo, female NMRI mice; details: for Sedative effect R.A. (relative activity; chlorpromazine = 1.00) / ED50: mouse, oral administration; for Inhibition of the orientation hypermotility of mice (sedative-neuroleptic action), in words / Sedative action compared with chlorpromazine, in words: mice
# Procedure: The substance was administered orally to 4-8 groups each comprising 3 female NMRI mice. The orientation hypermotility induced by a new environment was determined photoelectrically, 30 minutes after administration of the substance, over a period of 30 minutes. The ED 50%, i.e. the dose which produces 50% reduction in orientation hypermotility compared to placebo-treated control […], is determined.
# [3] = Table 1, quotient defined by formula drawing 8 (sedative ED 50% mouse oral, hypotensive ED 20% rat i.v.)
# [4] = Table 1, intravenous administration
# [5] = Table 1, intravenous administration, read-out: Hypotensive effect ED 20% (dose which reduces the blood pressure by 20%)
# [6] = Table 1, read-out: Sedative effect ED 50% (dose which reduces the motility by 50%)
# [7] = Table 2, defined by formula drawing 9, hypotensive effect i.v.
# [8] = Table 2, intravenous (i.v.), read-out: Hypotensive effect ED 20%
# [9] = Table 2, read-out: Sedative effect ED 50%
# [10] = Table 2, defined by formula drawing 9, hypotensive effect i.p.
# [11] = Table 2, intraperitoneal (i.p.)
# [12] = ip, Table 2, intraperitoneal (i.p.), read-out: Hypotensive effect ED 20%
SMILES,"Q [1, 3]","Hypotensive effect R.A. (relative activity; chlorpromazine = 1.00) [1, 4]","ED20 [1, 5] [mg/kg]",Separation between sedative action and hypotensive action versus chlorpromazine [1],Hypotensive action in words: blood pressure lowering doses versus chlorpromazine [1],Sedative effect R.A. (relative activity; chlorpromazine = 1.00) ([2]; Table 1),"ED50 [2, 6] [mg/kg]","Q [1, 7]","Hypotensive effect R.A. (relative activity; chlorpromazine = 1.00) ([1]; Table 2, intravenous (i.v.))","ED20 [1, 8] [mg/kg]","Hypotensive side effect, in words [1]",Sedative effect R.A. (relative activity; chlorpromazine = 1.00) ([2]; Table 2),"ED50 [2, 9] [mg/kg]","Inhibition of the orientation hypermotility of mice (sedative-neuroleptic action), in words [2]","Sedative action compared with chlorpromazine, in words [2]","Q [1, 10]","Hypotensive effect R.A. (relative activity; chlorpromazine = 1.00) [1, 11]","ED20 [1, 12] [mg/kg]"
COc1ccccc1N1CCN(CCCOc2ccccc2-c2nnco2)CC1 [Example 1],"2,050",3.25,0.008,substantially greater,significantly lower than in the case of chlorpromazine,0.13,16.4,,,,,,,,,,,
"COc1ccccc1N1CCN(CCCOc2ccccc2-c2nnc(C)o2)CC1 [Example 3, 1-[2-(5-Methyl-1,3,4-oxadiazol-2-yl)-phenoxy]-3-[4-(2-methoxyphenyl)-piperazin-1-yl]-propane]",534,0.68,0.0384,substantially greater,,0.10,20.5,,,,,,,,,,,
"COc1ccccc1N1CCN(CCCOc2cccc(-c3nnco3)c2)CC1 [Example 6, 1-[3-(1,3,4-Oxadiazol-2-yl)-phenoxy]-3-[4-(2-methoxyphenyl)-piperazin-1-yl]-propane]",417,3.38,0.0077,substantially greater,significantly lower than in the case of chlorpromazine,0.66,3.21,,,,,,,,,,,
"COc1ccccc1N1CCN(CCCOc2cccc(-c3nnc(C)o3)c2)CC1 [Example 7, 1-[3-(5-Methyl-1,3,4-oxadiazol-2-yl)-phenoxy]-3-[4-(2-methoxyphenyl)-piperazin-1-yl]-propane]",312,2.17,0.0012,substantially greater,significantly lower than in the case of chlorpromazine,0.56,3.74,,,,,,,,,,,
Fc1ccc(N2CCN(CCCOc3ccc(-n4ccnc4)cc3)CC2)cc1 [Example 10],,,,,,,,3.0,0.03,1,non-hypotensive action up to doses of 1 or 10 mg/kg,0.69,3.05,powerful inhibition of the orientation hypermotility of mice,almost achieved,,,
"COc1ccccc1N1CCN(CCCOc2ccc(-c3nnco3)cc2)CC1 [Example 11, 1-[4-(1,3,4-Oxadiazol-2-yl)-phenoxy]-3-[4-(2-methoxyphenyl)-piperazin-1-yl]-propane]",307,3.71,0.007,substantially greater,significantly lower than in the case of chlorpromazine,0.98,2.15,,,,,,,,,,,
"Fc1ccc(N2CCN(CCCNc3ccc(-n4cncn4)cc3)CC2)cc1 [Example 14, 1-[4-(1,2,4-Triazol-1-yl)-phenylamino]-3-[4-(4-fluorophenyl)-piperazin-1-yl]-propane]",,,,,,,,,,,non-hypotensive action up to doses of 1 or 10 mg/kg,2.59,0.818,powerful inhibition of the orientation hypermotility of mice,clearly surpassed,0.08,0.02,10
"Fc1ccc(N2CCN(CCCNc3ccc(-n4ccnc4)cc3)CC2)cc1 [Example 15, 1-[4-(Imidazol-1-yl)-phenylamino]-3-[4-(4-fluorophenyl)-piperazin-1-yl]-propane]",,,,,,,,0.16,0.003,10,non-hypotensive action up to doses of 1 or 10 mg/kg,1.3,1.62,powerful inhibition of the orientation hypermotility of mice,clearly surpassed,,,
"CN(C)CCCN1c2ccccc2Sc2ccc(Cl)cc21 [chlorpromazine, reference compound]",81,1.00,0.026,,,1.00,,81.0,1.0,0.026,observed even at low doses,1.0,2.11,,,12.9,1.0,0.164
